Laboratory results from PubChem BioAssay (NCI).
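All cell lines were grown in 96-well plates and treated with compound for 48 hours. The concentration for full growth arrest is given as TGI.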

Tests used:
Assay in all cases: NCI-60 cell line screen, 48 h
786-0 renal = tested on: 786-0 renal
A498 renal = tested on: A498 renal
A549 NSCLC = tested on: A549 NSCLC
ACHN renal = tested on: ACHN renal
CAKI-1 renal = tested on: CAKI-1 renal
CCRF-CEM leukemia = tested on: CCRF-CEM leukemia
COLO 205 colon = tested on: COLO 205 colon
DLD-1 colon = tested on: DLD-1 colon
DMS 114 small cell lung = tested on: DMS 114 small cell lung
DMS 273 small cell lung = tested on: DMS 273 small cell lung
EKVX NSCLC = tested on: EKVX NSCLC
HCC-2998 colon = tested on: HCC-2998 colon
HCT-116 colon = tested on: HCT-116 colon
HCT-15 colon = tested on: HCT-15 colon
HL-60(TB) leukemia = tested on: HL-60(TB) leukemia
HOP-62 NSCLC = tested on: HOP-62 NSCLC
HOP-92 NSCLC = tested on: HOP-92 NSCLC
HT29 colon = tested on: HT29 colon
IGROV1 ovarian = tested on: IGROV1 ovarian
K-562 leukemia = tested on: K-562 leukemia
KM12 colon = tested on: KM12 colon
KM20L2 colon = tested on: KM20L2 colon
LOX IMVI melanoma = tested on: LOX IMVI melanoma
M14 melanoma = tested on: M14 melanoma
M19-MEL melanoma = tested on: M19-MEL melanoma
MALME-3M melanoma = tested on: MALME-3M melanoma
MOLT-4 leukemia = tested on: MOLT-4 leukemia
NCI-H460 lung = tested on: NCI-H460 lung
NCI-H522 lung = tested on: NCI-H522 lung
OVCAR-3 ovarian = tested on: OVCAR-3 ovarian
OVCAR-4 ovarian = tested on: OVCAR-4 ovarian
OVCAR-5 ovarian = tested on: OVCAR-5 ovarian
OVCAR-8 ovarian = tested on: OVCAR-8 ovarian
RPMI-8226 leukemia = tested on: RPMI-8226 leukemia
RXF 393 renal = tested on: RXF 393 renal
RXF-631 renal = tested on: RXF-631 renal
SF-268 CNS = tested on: SF-268 CNS
SF-295 CNS = tested on: SF-295 CNS
SF-539 CNS = tested on: SF-539 CNS
SK-MEL-2 melanoma = tested on: SK-MEL-2 melanoma
SK-MEL-28 melanoma = tested on: SK-MEL-28 melanoma
SK-MEL-5 melanoma = tested on: SK-MEL-5 melanoma
SK-OV-3 ovarian = tested on: SK-OV-3 ovarian
SN12C renal = tested on: SN12C renal
SNB-19 CNS = tested on: SNB-19 CNS
SNB-78 CNS = tested on: SNB-78 CNS
SW-620 colon = tested on: SW-620 colon
TK-10 renal = tested on: TK-10 renal
U251 CNS = tested on: U251 CNS
UACC-62 melanoma = tested on: UACC-62 melanoma
XF 498 CNS = tested on: XF 498 CNS
HOP-18 NSCLC = tested on: HOP-18 NSCLC
LXFL 529 NSCLC = tested on: LXFL 529 NSCLC
NCI-H226 lung = tested on: NCI-H226 lung
NCI-H23 lung = tested on: NCI-H23 lung
SNB-75 CNS = tested on: SNB-75 CNS
SR leukemia = tested on: SR leukemia
UACC-257 melanoma = tested on: UACC-257 melanoma
UO-31 renal = tested on: UO-31 renal

Measured: TGI

S=C(Nc1ccccc1)Nc1ccccc1SC(/C=C/NNC1=NC(c2ccccc2)C(c2ccccc2)=NN1)c1ccccc1 (centres undefined)
44.6 µM: RXF 393 renal
64.5 µM: HOP-62 NSCLC
84.2 µM: HOP-92 NSCLC
not listed: HOP-18 NSCLC | LXFL 529 NSCLC | NCI-H226 lung | NCI-H23 lung | SNB-75 CNS | SR leukemia | UACC-257 melanoma | UO-31 renal
> 100 µM: all other assays above

O=C(O)C1=CN=C(C(=O)O)NN1
not listed: A498 renal | DMS 273 small cell lung | HCC-2998 colon | LOX IMVI melanoma | OVCAR-5 ovarian | SNB-78 CNS
> 100 µM: all other assays above
